Test results as given in patent US7666901B2, “Analogs of 17-hydroxywortmannin as PI3K inhibitors” (Wyeth, priority 2004, dated 2010).
≈ marks a conversion by molar mass, not a printed value.

What was measured:
[1] = system: MDA468 (human breast cancer cell); experiment: Cell proliferation (MTS) assay, MDA468; type: cell-based; settings: Table 2, three days treatment; for IC50: Homo sapiens, 72 h
Method in brief: (§1)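 Cells plated at about 3000 per well in RPMI-1640/10% FBS were dosed with compound one day later. Viability was read by MTS conversion (absorbance 490 nm, 1–2 h) three days after treatment began. Effect is expressed as percent of vehicle-treated growth on the same plate.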

[2] = system: DU145 (human prostate carcinoma/lymphocytic leukemia); experiment: Cell proliferation (MTS) assay, DU145; type: cell-based; settings: Table 2, three days treatment; for IC50: Homo sapiens, DU-145, 72 h
Method in brief: as §1

[3] = system: phosphor-AKT (S473) in Rat1 cells; experiment: Rat1-IGF1 assay (IGF-1 induced phospho-AKT immunoblot); type: cell-based, rat; settings: Table 2; for IC50: Rattus norvegicus
Method in brief: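 After 24 h serum starvation, Rat1 cells got vehicle or varying 17-HWT concentrations for 2 hours, then IGF-1 (100 ng/mL) for 30 minutes. Lysates immunoblotted for phospho-AKT (S473) and total AKT.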

Human TOR = biological target: T1, Human TOR (Homo sapiens, UniProt P42345); experiment: Human TOR (mTOR) kinase assay, DELFIA format; type: biochemical; settings: Table 2
T1 construct: FLAG
Method in brief: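 Purified FLAG-TOR (800 ng/mL) phosphorylates His6-S6K ([…]) with […] ATP in Hepes pH 7.4 buffer containing MnCl2, 2 h at room temperature. Phospho-Thr389 S6K detected by DELFIA using Europium-labelled anti-P(T389)-p70S6K antibody; enzyme inhibition calculated from signal.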

[4] = system: MDA435 (human breast adenocarcinoma); experiment: Cell proliferation (MTS) assay, MDA435; type: cell-based; settings: Table 2, three days treatment; for IC50: Homo sapiens, MDA435, 72 h
Method in brief: as §1

PI3K = system: T2, PI3K; experiment: Fluorescence polarization assay for PI3K; type: biochemical; settings: Table 2
T2 construct: PI3K FP IC50
Method in brief: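 PI3K was preincubated with compound at 1% DMSO final, then reacted with PIP2/ATP substrate for 30-60 min. The reaction was stopped with a detector mix giving 10 nM red probe and 70 nM GST-GRP. Fluorescence polarization (mP, Tamra filters) was read 30-90 min later and IC50 determined.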

[5] = system: LNCaP (human prostate carcinoma); experiment: Cell proliferation (MTS) assay, LNCaP; type: cell-based; settings: Table 2, three days treatment; for IC50: Homo sapiens, LNCaP, 72 h
Method in brief: as §1

Row | Compound | IC50 [1] [µg/mL] | IC50 [2] [µg/mL] | IC50 [3] [µg/mL] | IC50 (Human TOR) [nM] | IC50 [4] [µg/mL] | IC50 (PI3K) [nM] | IC50 [5] [µg/mL] | MDA468 IC50 [1] [µg/mL] | DU145 IC50 [2] [µg/mL] | Rat1-IGF1 IC50 [3] | MDA435 IC50 [4] [µg/mL] | LNCaP IC50 [5] [µg/mL]
1 | COCC1OC(=O)C(=CN(C)CCCN2CCOCC2)C2=C(O)C(=O)C3=C(C(OC(C)=O)CC4(C)C(O)CCC34)C21C (centres unmarked) [Compound 27, Acetic acid 6,17-dihydroxy-1-methoxymethyl-10,13-dimethyl-4-{[methyl-(3-morpholin-4-yl-propyl)-amino]-methylene}-3,7-dioxo-1,3,4,7,10,11,12,13,14,15,16,17-dodecahydro-2-oxa-cyclopenta[a]phenanthren-11-yl ester] | 5 (≈ 8.49 µM) | 23 (≈ 39.1 µM) | 0.1 (≈ 0.17 µM) | 2290 | 30 (≈ 51 µM) | 24 | 0.35 (≈ 0.595 µM) |  |  |  |  | 
2 | CCN(CC)CCCN(C=C1C(=O)OC(COC)C2(C)C1=C(O)C(=O)C1=C2C(OC(C)=O)CC2(C)C(O)CCC12)CCS(=O)(=O)c1ccccc1 (centres unmarked) [Compound 28, Acetic acid 4-{[(2-benzenesulfonyl-ethyl)-(3-diethylamino-propyl)-amino]-methylene}-6,17-dihydroxy-1-methoxymethyl-10,13-dimethyl-3,7-dioxo-1,3,4,7,10,11,12,13,14,15,16,17-dodecahydro-2-oxa-cyclopenta[a]phenanthren-11-yl ester] | 3 (≈ 4.12 µM) | 8.5 (≈ 11.7 µM) | > 0.1 | > 13700 | 11 (≈ 15.1 µM) | 131 | 0.12 (≈ 0.165 µM) |  |  |  |  | 
3 | COCC1OC(=O)C(=CN(Cc2ccccc2)CC23CCCN(CCC2)C3)C2=C(O)C(=O)C3=C(C(OC(C)=O)CC4(C)C(O)CCC34)C21C (centres unmarked) [Compound 29, Acetic acid 4-{[(1-aza-bicyclo[3.3.1]non-5-ylmethyl)-benzyl-amino]-methylene}-6,17-dihydroxy-1-methoxymethyl-10,13-dimethyl-3,7-dioxo-1,3,4,7,10,11,12,13,14,15,16,17-dodecahydro-2-oxa-cyclopenta[a]phenanthren-11-yl ester] | 15 (≈ 22.2 µM) | 30 (≈ 44.5 µM) | > 0.1 | > 14800 | > 30 | 373 | 1.8 (≈ 2.67 µM) |  |  |  |  | 
4 | COCC1OC(=O)C(=CN2CCN(CCCN3CCOCC3)CC2)C2=C(O)C(=O)C3=C(C(OC(C)=O)CC4(C)C(O)CCC34)C21C (centres unmarked) [Compound 30, Acetic acid 6,17-dihydroxy-1-methoxymethyl-10,13-dimethyl-4-[4-(3-morpholin-4-yl-propyl)-piperazin-1-ylmethylene]-3,7-dioxo-1,3,4,7,10,11,12,13,14,15,16,17-dodecahydro-2-oxa-cyclopenta[a]phenanthren-11-yl ester] | 4 (≈ 6.21 µM) | 21 (≈ 32.6 µM) | 0.02 (≈ 0.0311 µM) | 1200 | 21 (≈ 32.6 µM) | 46 | 0.41 (≈ 0.637 µM) |  |  |  |  | 
5 | COCC1OC(=O)C(=CN(C)CCN(C)C)C2=C(O)C(=O)C3=C(C(OC(C)=O)CC4(C)C(O)CCC34)C21C (centres unmarked) [Compound 31, Acetic acid 4-{[(2-dimethylamino-ethyl)-methyl-amino]-methylene}-6,17-dihydroxy-1-methoxymethyl-10,13-dimethyl-3,7-dioxo-1,3,4,7,10,11,12,13,14,15,16,17-dodecahydro-2-oxa-cyclopenta[a]phenanthren-11-yl ester] | 4 (≈ 7.51 µM) | 21 (≈ 39.4 µM) | 0.1 (≈ 0.188 µM) | 1280 | 23 (≈ 43.2 µM) | 9 | 0.4 (≈ 0.751 µM) |  |  |  |  | 
6 | COCC1OC(=O)C(=CN2CCN(CCCN(C)C)CC2)C2=C(O)C(=O)C3=C(C(OC(C)=O)CC4(C)C(O)CCC34)C21C (centres unmarked) [Compound 32, Acetic acid 4-[4-(3-dimethylamino-propyl)-piperazin-1-ylmethylene]-6,17-dihydroxy-1-methoxymethyl-10,13-dimethyl-3,7-dioxo-1,3,4,7,10,11,12,13,14,15,16,17-dodecahydro-2-oxa-cyclopenta[a]phenanthren-11-yl ester] | 4.1 (≈ 6.81 µM) | 20 (≈ 33.2 µM) | 0.1 (≈ 0.166 µM) | 249 | 22 (≈ 36.6 µM) | 39 | 0.5 (≈ 0.831 µM) |  |  |  |  | 
7 | COCC1OC(=O)C(=CN2CCN(CCN3CCOCC3)CC2)C2=C(O)C(=O)C3=C(C(OC(C)=O)CC4(C)C(O)CCC34)C21C (centres unmarked) [Compound 33, Acetic acid 6,17-dihydroxy-1-methoxymethyl-10,13-dimethyl-4-[4-(2-morpholin-4-yl-ethyl)-piperazin-1-ylmethylene]-3,7-dioxo-1,3,4,7,10,11,12,13,14,15,16,17-dodecahydro-2-oxa-cyclopenta[a]phenanthren-11-yl ester] | 4.3 (≈ 6.83 µM) | 20 (≈ 31.8 µM) | 0.1 (≈ 0.159 µM) | 619 | 18 (≈ 28.6 µM) | 78 | 0.5 (≈ 0.794 µM) |  |  |  |  | 
8 | COCC1OC(=O)C(=CN2CCN(C3CCN(C)CC3)CC2)C2=C(O)C(=O)C3=C(C(OC(C)=O)CC4(C)C(O)CCC34)C21C (centres unmarked) [Compound 34, Acetic acid 6,17-dihydroxy-1-methoxymethyl-10,13-dimethyl-4-[4-(1-methyl-piperidin-4-yl)-piperazin-1-ylmethylene]-3,7-dioxo-1,3,4,7,10,11,12,13,14,15,16,17-dodecahydro-2-oxa-cyclopenta[a]phenanthren-11-yl ester] | 6 (≈ 9.78 µM) | 25 (≈ 40.7 µM) | 0.1 (≈ 0.163 µM) | 961 | 22 (≈ 35.8 µM) | 91 | 0.48 (≈ 0.782 µM) |  |  |  |  | 
9 | COCC1OC(=O)C(=CN(C)CC(=O)OC(C)(C)C)C2=C(O)C(=O)C3=C(C(OC(C)=O)CC4(C)C(O)CCC34)C21C (centres unmarked) [Compound 35, [(11-Acetoxy-6,17-dihydroxy-1-methoxymethyl-10,13-dimethyl-3,7-dioxo-1,7,10,11,12,13,14,15,16,17-decahydro-2-oxa-cyclopenta[a]phenanthren-4-ylidenemethyl)-methyl-amino]-acetic acid tert-butyl ester] | 1.4 (≈ 2.43 µM) | 3 (≈ 5.21 µM) | 0.1 (≈ 0.174 µM) | 13900 | 5.5 (≈ 9.55 µM) | 1580 | 0.1 (≈ 0.174 µM) |  |  |  |  | 
10 | COCC1OC(=O)C(=CN(C)CC(O)CO)C2=C(O)C(=O)C3=C(C(OC(C)=O)CC4(C)C(O)CCC34)C21C (centres unmarked) [Compound 36, Acetic acid 4-{[(2,3-dihydroxy-propyl)-methyl-amino]-methylene}-6,17-dihydroxy-1-methoxymethyl-10,13-dimethyl-3,7-dioxo-1,3,4,7,10,11,12,13,14,15,16,17-dodecahydro-2-oxa-cyclopenta[a]phenanthren-11-yl ester] | 2.3 (≈ 4.29 µM) | 12 (≈ 22.4 µM) | 0.1 (≈ 0.187 µM) | 2990 | 5 (≈ 9.34 µM) | 199 | 0.09 (≈ 0.168 µM) |  |  |  |  | 
11 | COCC1OC(=O)C(=CN(C)CCCC(=O)O)C2=C(O)C(=O)C3=C(C(OC(C)=O)CC4(C)C(O)CCC34)C21C (centres unmarked) [Compound 37, 4-[(11-Acetoxy-6,17-dihydroxy-1-methoxymethyl-10,13-dimethyl-3,7-dioxo-1,7,10,11,12,13,14,15,16,17-decahydro-2-oxa-cyclopenta[a]phenanthren-4-ylidenemethyl)-methyl-amino]-butyric acid] | 4 (≈ 7.3 µM) | 21 (≈ 38.3 µM) | 0.1 (≈ 0.183 µM) | 12600 | 12 (≈ 21.9 µM) | 193 | 0.2 (≈ 0.365 µM) |  |  |  |  | 
12 | COCC1OC(=O)C(=CN2CCC2C(=O)O)C2=C(O)C(=O)C3=C(C(OC(C)=O)CC4(C)C(O)CCC34)C21C (centres unmarked) [Compound 38, 1-(11-Acetoxy-6,17-dihydroxy-1-methoxymethyl-10,13-dimethyl-3,7-dioxo-1,7,10,11,12,13,14,15,16,17-decahydro-2-oxa-cyclopenta[a]phenanthren-4-ylidenemethyl)-azetidine-2-carboxylic acid] | 1.3 (≈ 2.45 µM) | 2.4 (≈ 4.52 µM) | 0.1 (≈ 0.188 µM) | 9590 | 4 (≈ 7.53 µM) | 63 | 0.06 (≈ 0.113 µM) |  |  |  |  | 
13 | COCC1OC(=O)C(=CN2CCCC2C(=O)OC)C2=C(O)C(=O)C3=C(C(OC(C)=O)CC4(C)C(O)CCC34)C21C (centres unmarked) [Compound 39, 1-(11-Acetoxy-6,17-dihydroxy-1-methoxymethyl-10,13-dimethyl-3,7-dioxo-1,7,10,11,12,13,14,15,16,17-decahydro-2-oxa-cyclopenta[a]phenanthren-4-ylidenemethyl)-pyrrolidine-2-carboxylic acid methyl ester] | 1.2 (≈ 2.14 µM) | 2.4 (≈ 4.29 µM) | 0.1 (≈ 0.179 µM) | 12300 | 4 (≈ 7.15 µM) | 770 | 0.043 (≈ 0.0768 µM) |  |  |  |  | 
14 | COCC1OC(=O)C(=CN2CCCC2C(=O)OC)C2=C(O)C(=O)C3=C(C(OC(C)=O)CC4(C)C(O)CCC34)C21C (centres unmarked) [Compound 40, 1-(11-Acetoxy-6,17-dihydroxy-1-methoxymethyl-10,13-dimethyl-3,7-dioxo-1,7,10,11,12,13,14,15,16,17-decahydro-2-oxa-cyclopenta[a]phenanthren-4-ylidenemethyl)-pyrrolidine-2-carboxylic acid methyl ester] |  |  |  | > 17900 |  | 444 |  | 0.75 | 1.85 | >0.1(hint) μg/ml | 5.5 | 0.085
